Experiments:
HDAC6 = molecular target: T1, HDAC6 (Homo sapiens, UniProt Q9UBN7); assay: HDAC6 inhibitory activity (IC50); assay type: biochemical; conditions: Table 2; read-out: HDAC6
T1 sequence (Q9UBN7 1-1215): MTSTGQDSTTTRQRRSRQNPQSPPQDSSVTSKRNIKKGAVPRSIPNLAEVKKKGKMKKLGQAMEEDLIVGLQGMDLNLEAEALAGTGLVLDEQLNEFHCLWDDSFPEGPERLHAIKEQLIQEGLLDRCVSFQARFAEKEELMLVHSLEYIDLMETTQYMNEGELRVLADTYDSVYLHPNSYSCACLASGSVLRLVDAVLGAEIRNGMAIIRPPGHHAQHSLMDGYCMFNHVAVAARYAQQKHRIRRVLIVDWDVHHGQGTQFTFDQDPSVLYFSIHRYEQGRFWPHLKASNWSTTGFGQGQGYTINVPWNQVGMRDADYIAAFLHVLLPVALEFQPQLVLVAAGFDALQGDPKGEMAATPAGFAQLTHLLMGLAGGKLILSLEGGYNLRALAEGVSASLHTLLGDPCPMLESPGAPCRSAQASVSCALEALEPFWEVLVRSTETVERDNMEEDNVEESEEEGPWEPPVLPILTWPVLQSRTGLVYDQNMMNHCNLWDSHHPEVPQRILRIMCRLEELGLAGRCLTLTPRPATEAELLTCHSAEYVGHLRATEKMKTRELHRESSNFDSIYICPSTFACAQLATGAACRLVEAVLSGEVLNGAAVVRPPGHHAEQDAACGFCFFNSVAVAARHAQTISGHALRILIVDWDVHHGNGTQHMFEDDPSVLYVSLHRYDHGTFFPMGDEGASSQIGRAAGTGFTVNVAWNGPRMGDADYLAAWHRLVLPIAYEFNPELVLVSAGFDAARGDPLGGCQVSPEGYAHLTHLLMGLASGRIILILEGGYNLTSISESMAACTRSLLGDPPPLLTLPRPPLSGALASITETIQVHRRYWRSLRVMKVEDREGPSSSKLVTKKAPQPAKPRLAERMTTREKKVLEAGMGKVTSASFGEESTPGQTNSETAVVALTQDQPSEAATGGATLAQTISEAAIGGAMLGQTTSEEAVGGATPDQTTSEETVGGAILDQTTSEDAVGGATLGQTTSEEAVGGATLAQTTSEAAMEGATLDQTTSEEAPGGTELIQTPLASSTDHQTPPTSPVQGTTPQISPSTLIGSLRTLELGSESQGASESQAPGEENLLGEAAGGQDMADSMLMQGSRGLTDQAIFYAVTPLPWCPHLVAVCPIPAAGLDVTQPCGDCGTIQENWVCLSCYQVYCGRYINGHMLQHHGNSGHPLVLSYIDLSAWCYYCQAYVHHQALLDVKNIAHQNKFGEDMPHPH
Method: (§1) HDAC inhibitor compounds designed and synthesized in accordance with the present invention were tested for their inhibitor activity against several different HDAC isoforms.

HDAC1 = HDAC1 (Homo sapiens, UniProt Q13547); assay: HDAC1 inhibitory activity (IC50); assay type: biochemical; conditions: Table 2; read-out: HDAC1
Method: as §1

HDAC2 = HDAC2 (Homo sapiens, UniProt Q92769); assay: HDAC2 inhibitory activity (IC50); assay type: biochemical; conditions: Table 2; read-out: HDAC2
Method: as §1

HDAC3 = HDAC3 (Homo sapiens, UniProt O15379); assay: HDAC3 inhibitory activity (IC50); assay type: biochemical; conditions: Table 2; read-out: HDAC3
Method: as §1

MM.1S cells = assay: Immunoblot of histone and α-tubulin acetylation in MM.1S cells; assay type: cell-based, human; conditions: 12 h, Compound 10 10 and 20 μM
pSTAT3 (Tyr705) = assay: Immunoblot of STAT3 phosphorylation in MM cells; assay type: cell-based, human
Method: MM cells were harvested and lysed using sodium dodecyl sulfate-polyacrylamide gel electrophoresis (SDS-PAGE) sample buffer containing 60 mM Tris-HCl, pH 6.8, 2% SDS, 10% glycerol, 0.005% bromophenol blue, 5 mM ethylenediaminetetraacetic acid, 5 mM NaF, 2 mM […], 1 mM phenylmethylsulfonyl fluoride (PMSF), 5 μg/mL leupeptin, and 5 μg/mL aprotinin; and then heated at 100° C. for 5 min. After the determination of protein concentration using DC protein assay (Bio-Rad, Hercules, Calif.), β-mercaptoethanol (β-ME) was added to the whole-cell lysates to a 2% final β-ME concentration. The whole-cell lysates were subjected to SDS-PAGE, transferred to nitrocellulose membranes (Bio-Rad, Hercules, Calif.) or polyvinylidene fluoride membranes (Millipore, Billerica, Mass.), and immunoblotted with anti-histone H3, -HDAC1, -HDAC2, -HDAC3, -Acetyl-histone H2A (Lysine 5) (Ac-H2AK5), -Acetyl-histone H2B (lysine 5) (Ac-H2 BK5), -Acetyl-histone H3 (lysine 9) (Ac-H3K9), -Acetyl-histone H4 (lysine 8) (Ac-H4K8), -glyceraldehyde-3-phosphate dehydrogenase (GAPDH), -poly (ADP-ribose) polymerase (PARP), -caspase-3, -caspase-8, -caspase-9, -Signal transducers and activators of transcription 3 (STAT3), -phospho-STAT3 (pSTAT3) (tyrosine 705), -pSTAT3 (serine 727), -p21, -Janus kinase 2 (JAK2), -acetylated-Lysine (Ac-K), and anti-phosphorylated-tyrosine antibodies (Abs; Cell Signaling Technology, Beverly, Mass.).
MM.1S, U266, and INA6 cells were cultured with DMSO control or LBH589 (50 and 100 nM) for 8 h.
MM.1S cells pretreated with or without 50 nM LBH589 for 8 hours were then treated with IL-6 (10 ng/mL) or BMSC culture supernatants (#1 and #2) for 15 minutes. Whole cell lysates were subjected to immunoblotting with anti-pSTAT3 (Tyr705) and STAT3 Abs.
In addition, INA-6 cells were cultured with DMSO control, LBH589 (50 nM), TSA (1 μM) or SAHA (2 μM) for 8 hours. Whole cell lysates were subjected to immunoblotting with anti-pSTAT3 (Tyr705), STAT3, and GAPDH Abs.
Whole cell lysates were subjected to immunoblotting with anti-pSTAT3 (Tyr705), -STAT3, -pERK1/2 (Thr202/204), and -ERK1/2 Abs (FIG. 6G).
See, e.g., Hideshima et al. Blood. 2006, 107:4053-4062. Since bortezomib upregulates activated STAT3 in head and neck squamous cell carcinoma (see, e.g., Li et al. Mol Cancer Ther 2009. 8:2211-2220), experiments were conducted to test whether bortezomib enhances p-STAT3 in MM cells. RPMI8226 cells were infected with Luc, HDAC1 (sh1), HDAC2 (sh1) or HDAC3 (sh1) shRNAs and then treated with or without bortezomib (5 nM) for 6 hours. Whole cell lysates were subjected to immunoblotting with anti-STAT3, -pSTAT3 (Tyr705), -pERK1/2 (Thr202/204) and -ERK1/2 Abs.

MM cell lines = assay: Cell growth inhibition assay (MTT) in MM cell lines; assay type: cell-based, human; conditions: MM cell lines, 48 hours, MTT (FIG. 1A)
Method: To measure proliferation of MM cells, the rate of DNA synthesis was measured by ^3[H]-thymidine (Perkin-Elmer) uptake.
The growth inhibitory effect of Merck60 (HDACL, 2 inhibitor previously reported as compound #60 by Method et al. Bioorg. Med. Chem. Lett. 2008. 18(3):973-8) versus MS275 (HDAC1, 2, 3 inhibitor) was examined in MM cell lines using MTT assay. MM cells were cultured with Merck60 (left panel) or MS275 (right panel) for 48 hours. Cell growth was assessed by MTT assay. All experiments were performed 3 times in quadruplicate. Data represent mean±SD.
Cell growth was assessed by MTT assay. All experiments were performed 3 times in quadruplicate. Data represent mean±SD.

RPMI8226 cells = assay: Combination with bortezomib, MTT cytotoxicity, combination index; assay type: cell-based, human; conditions: RPMI8226, MTT, 24 h
Method: The combined effect of drugs was analyzed by isobologram analysis using the Compusyn software program (ComboSyn, Inc.); a combination index (CI)<1 is indicative of a synergistic effect.
All experiments were performed 3 times in quadruplicate. Data represent mean±SD (FIG. 7D).

[1] = INA-6 cells, 8 hours, TSA 1 μM, SAHA 2 μM (FIG. 4C)

Sequence of HDAC1 (Q13547 whole entry): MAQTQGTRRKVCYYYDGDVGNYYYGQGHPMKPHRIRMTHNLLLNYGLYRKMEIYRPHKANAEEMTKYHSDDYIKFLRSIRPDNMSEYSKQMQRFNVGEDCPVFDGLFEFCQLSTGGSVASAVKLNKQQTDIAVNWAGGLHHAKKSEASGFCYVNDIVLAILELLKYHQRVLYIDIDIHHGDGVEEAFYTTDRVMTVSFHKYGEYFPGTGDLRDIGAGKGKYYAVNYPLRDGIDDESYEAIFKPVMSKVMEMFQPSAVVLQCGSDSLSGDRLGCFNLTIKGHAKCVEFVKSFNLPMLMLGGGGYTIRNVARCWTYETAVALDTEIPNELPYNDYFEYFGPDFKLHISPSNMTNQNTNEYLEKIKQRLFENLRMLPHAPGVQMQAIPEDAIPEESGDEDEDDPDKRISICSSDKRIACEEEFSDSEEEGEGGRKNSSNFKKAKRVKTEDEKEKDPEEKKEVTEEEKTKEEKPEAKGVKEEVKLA
Sequence of HDAC2 (Q92769 whole entry): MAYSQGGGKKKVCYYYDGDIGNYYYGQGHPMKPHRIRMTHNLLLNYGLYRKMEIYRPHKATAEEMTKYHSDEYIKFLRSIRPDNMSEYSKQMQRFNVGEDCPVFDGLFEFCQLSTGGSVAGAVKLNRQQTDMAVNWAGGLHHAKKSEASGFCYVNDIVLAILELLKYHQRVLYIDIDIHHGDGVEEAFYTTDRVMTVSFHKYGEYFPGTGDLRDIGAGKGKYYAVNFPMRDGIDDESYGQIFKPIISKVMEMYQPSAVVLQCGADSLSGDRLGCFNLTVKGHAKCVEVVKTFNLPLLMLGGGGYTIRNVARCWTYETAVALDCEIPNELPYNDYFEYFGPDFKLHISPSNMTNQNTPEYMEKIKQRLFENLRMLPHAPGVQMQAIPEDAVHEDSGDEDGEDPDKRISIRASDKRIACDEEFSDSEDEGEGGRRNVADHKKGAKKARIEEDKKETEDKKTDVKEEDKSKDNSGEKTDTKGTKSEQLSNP
Sequence of HDAC3 (O15379 whole entry): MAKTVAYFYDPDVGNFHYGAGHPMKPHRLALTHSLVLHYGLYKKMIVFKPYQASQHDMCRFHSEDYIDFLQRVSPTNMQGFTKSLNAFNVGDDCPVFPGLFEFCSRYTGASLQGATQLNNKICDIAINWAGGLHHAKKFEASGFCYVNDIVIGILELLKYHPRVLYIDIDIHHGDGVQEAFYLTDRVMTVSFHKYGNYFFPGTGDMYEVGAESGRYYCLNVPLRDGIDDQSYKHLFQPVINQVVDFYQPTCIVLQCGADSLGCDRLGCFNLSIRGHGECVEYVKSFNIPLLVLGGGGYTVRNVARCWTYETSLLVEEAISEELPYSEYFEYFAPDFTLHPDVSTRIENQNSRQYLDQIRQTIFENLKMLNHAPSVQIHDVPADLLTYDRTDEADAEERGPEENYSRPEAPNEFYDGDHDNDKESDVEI
Sequence of HDAC3 (Q9Y618 395-489 partner limits assumed): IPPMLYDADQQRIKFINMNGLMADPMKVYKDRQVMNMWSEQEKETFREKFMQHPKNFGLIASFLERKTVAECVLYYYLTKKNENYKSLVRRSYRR

| Compound | IC50 (HDAC6) | IC50 (HDAC1) | IC50 (HDAC2) | IC50 (HDAC3) | further results |
| --- | --- | --- | --- | --- | --- |
| Nc1ccccc1NC(=O)c1cccnc1 [Compound 1] | 74300 nM |  |  |  |  |
| Nc1ccccc1NC(=O)c1ccncc1 [Compound 2] | > 100000 nM | 2820 nM | 2340 nM | 368 nM |  |
| Nc1ccccc1NC(=O)c1ccccn1 [Compound 3] | > 100000 nM |  | 2360 nM | 346 nM |  |
| O=C(Nc1ccccc1O)c1cccnc1 [Compound 5] | > 100000 nM | 10500 nM | 3670 nM | 3320 nM |  |
| O=C(Nc1ccccc1O)c1ccncc1 [Compound 6] | > 100000 nM | 5770 nM | 1910 nM | 1990 nM |  |
| O=C(Nc1ccccc1O)c1ccccn1 [Compound 7] | > 100000 nM | 12400 nM | 4110 nM | 3620 nM |  |
| Nc1ccccc1NC(=O)c1cnc(Nc2ccccc2)nc1 [Compound 8] | > 100000 nM | 735 nM | 1210 nM | 169 nM |  |
| Nc1ccccc1NC(=O)c1ccc(Cl)nc1 [Compound 9] | > 100000 nM | 3280 nM | 2590 nM | 280 nM |  |
| CC(=O)Nc1ccc(C(=O)Nc2cc(-c3ccccc3)ccc2N)cc1 [Compound 11] | > 100000 nM | < 10 nM | 60.4 nM | 843 nM |  |
| CC(=O)Nc1ccc(C(=O)Nc2ccc(F)cc2N)cc1 [Compound 12] | > 100000 nM | 1230 nM | 760 nM | 70.2 nM |  |
| Nc1cc(F)ccc1NC(=O)c1cccnc1 [Compound 13] | > 100000 nM | 27000 nM | 13400 nM | 1960 nM |  |
| Nc1cc(F)ccc1NC(=O)c1cnccn1 [Compound 14] | > 100000 nM | 4120 nM | 2320 nM | 296 nM |  |
| O=C(Nc1ccc(F)cc1O)c1cccnc1 [Compound 15] | > 100000 nM | 13700 nM | 5520 nM | 2350 nM |  |
| Cc1ccc(C(=O)Nc2ccccc2N)cn1 [Compound 17] | > 100000 nM | 1390 nM | 1360 nM | 213 nM |  |
| Cc1[nH]c2ccccc2c1CCNCc1ccc(/C=C/C(=O)NO)cc1 [LBH589, reference compound] |  |  |  |  | histone acetylation (MM.1S cells; LBH589 50 and 100 nM (FIG. 6F left)): significantly triggered both histone and α-tubulin acetylation; α-tubulin acetylation (biomarker of HDAC6 inhibition) (MM.1S cells; LBH589 50 and 100 nM (FIG. 6F right)): significantly triggered both histone and α-tubulin acetylation; P-STAT3 upregulated by IL-6 or BMSC culture supernatants (pSTAT3 (Tyr705); MM.1S, 50 nM pretreatment 8 hours, IL-6 10 ng/mL or supernatants 15 minutes (FIG. 4B)): blocked; p-STAT3 (pSTAT3 (Tyr705); MM.1S, U266, INA-6 cells, 50 and 100 nM, 8 h (FIG. 4A)): significantly inhibited |
| CC(=O)Nc1ccc(C(=O)Nc2cc(-c3cccs3)ccc2N)cc1 [Merck60, 4-acetamido-N-(2-amino-5-(thiophen-2-yl)phenyl)benzamide] |  |  |  |  | MM cell growth inhibition (MM cell lines): only a modest growth inhibition effect; CI (combination index) (RPMI8226 cells; HDAC inhibitor 1 μM + bortezomib 2 nM): 1.95; CI (combination index) (RPMI8226 cells; HDAC inhibitor 1 μM + bortezomib 3 nM): 1.06; CI (combination index) (RPMI8226 cells; HDAC inhibitor 1 μM + bortezomib 4 nM): 1.19; CI (combination index) (RPMI8226 cells; HDAC inhibitor 2 μM + bortezomib 2 nM): 1.54; CI (combination index) (RPMI8226 cells; HDAC inhibitor 2 μM + bortezomib 3 nM): 1.21; CI (combination index) (RPMI8226 cells; HDAC inhibitor 2 μM + bortezomib 4 nM): 1.34; CI (combination index) (RPMI8226 cells; HDAC inhibitor 3 μM + bortezomib 2 nM): 1.45; CI (combination index) (RPMI8226 cells; HDAC inhibitor 3 μM + bortezomib 3 nM): 1.4; CI (combination index) (RPMI8226 cells; HDAC inhibitor 3 μM + bortezomib 4 nM): 1.55 |
| O=C(CCCCCCC(=O)Nc1ccccc1)NO [SAHA, suberoylanilide hydroxamic acid] |  |  |  |  | p-STAT3 (pSTAT3 (Tyr705); [1]): downregulated p-STAT3 |
| CC(/C=C/C(=O)NO)=C\[C@@H](C)C(=O)c1ccc(N(C)C)cc1 [TSA] |  |  |  |  | p-STAT3 (pSTAT3 (Tyr705); [1]): downregulated p-STAT3 |
